Measured values published in EP4140481A1, “PROTEIN-OLIGOMER BINDING AGENTS AND THERAPEUTIC USES THEREOF” (Galyan Bio, Inc., priority 2021, dated 2023).

Assays:
[1] = Microsomal stability; format: in vitro ADME; conditions: humans versus mice
[2] = test system: C. elegans; assay: C. elegans healthspan, Worm Activity (aggregate movement); format: in vivo
Description: Background: To measure healthspan, active worms were identified using the ALM scanner images from the lifespan assay. The worms' spatial location on the plate was quantified throughout their lifespan to assess healthspan. Worm Activity serves as a proxy for animal health. Changes in spatial distribution of the worms between time points is used to derive aggregate movement for the population over time.
Worm Activity is described by two complementary measurements of aggregate movement: 1) Centroid Distance calculates a geometric center for each individual worm, and then measures the minimum collective distance that a group of worms moved between time points. It achieves measurement of the changes in spatial distribution betweentime-points. 2). Spatial Distribution uses changes in worm contours between time points to measure the changes in the spatial distribution of the worms' bodies. The normalized distribution of these distances in the population provides a measure of how much the group of worms altered their positions and posture on the plate between two time-points. For both of these activity metrics, a plot with higher numbers indicates good health, and all measures are normalized to fall between 0 and 1. All measurements are based on worms that are still alive and moving at the time of quantification. […]

[3] = biological target: T1, phospho-Tau (Ser396) (Mus musculus, UniProt P10637); assay: Phospho-Tau (Ser396) immunocytochemistry in STHdh 7/7 cells; format: cell-based; conditions: for Phospho-Tau (Ser396) reduction: heat shocked 3 hours, versus untreated STHdh 7/7
T1 construct: host or cells: ST HDH Q7/7 mouse striatal cell line
Experimental: Effect of Compound 4 on Phospho-Tau (Ser396) levels - ST HDH Q7/7 (CH00097, Coriell Institute) striatal derived cell line from a knock in transgenic mouse containing HTT loci with a humanized Exon 1 containing 7 polyglutamine repeats. Immunocytochemistry was conducted as described in Example 33 with the exception that instead of 3B5H10 antibody for staining mHTT, phospho-Tau (Ser396) polyclonal antibody (ThermoFisher, Catalog 44-752G) was used to stain phospho-Tau (Ser396).

[4] = test system: C. elegans; assay: C. elegans lifespan assay (Automated Lifespan Machine); format: in vivo
Experimental: Experimental Design: The lifespan assay was initiated by expanding all replicate groups to more than 1000 worms, then synchronizing by bleaching and allowing larval worms to hatch and arrest. To eliminate the effect of bacterial metabolism and growth on lifespan, synchronized worms were only exposed to dead food bacteria. To suppress progeny, worms are transferred to media containing 5-Fluorodeoxyuridine (FUdR) within 54-60 hours post plating. Worms are inspected at 24 and48 hours after this transfer to confirm infertility. Finally, the worms are inspected for general health and morphology before transferring to scanner plates. The scanner plates are incubated for an additional 2 days and inspected again before loading on to scanners. To understand the physiological impact of either genetic variation or pharmacological treatment on aging, it is crucial to use quantitative models. The analysis of lifespan data is grounded in the study of two mathematical functions: the survival curve and the hazard function. The survival curve (Figure 54) describes the fraction of a tested population that remains alive over time. The hazard function (Figure 55) is related to the survival curve and provides an intuitive measure of the risk of death. This function describes the probability that atypical individual who is currently alive will soon die, providing a clear visualization of the way a treatment may change patterns in mortality. To obtain high-resolution lifespan data and eliminate confounding factors such as worm handling and operator bias, lifespan data was collected using an Automated Lifespan Machine (ALM). Three biological replicates, derived from synchronizing three independently-maintained lines of N2 worms, were distributed across scanner instruments. Images of the worms were then collected for the next 35 days with no interruption or manipulations. Some plates were excluded after quality checks, but plate number and worm counts for all replicates exceeded the threshold for statistical significance (Table 32, row 1).Lifespan data are represented as the percent of worms surviving over time and the profile of this curve can be modeled by the Kaplan-Meier Estimate of Survival function (Figure 54). The survival curves can be compared by several statistics including mean, median, and maximum lifespan (Table 32), as well as the age of worms at a specific percent survival (Table 34). However, to determine whether one treatment group lived longer than another, survival curves are holistically compared using a log-rank test (Table 33). In this study, all pairwise comparisons between conditions were statistically significant. Tables 32 to 34 detail the raw measurements, calculations, and statistical analysis related to the survival curve in Figure 54. Lifespan is counted with day 0 set at day 1 of adulthood. No death times are recorded until worms are placed on the scanner on day 8 so earlier deaths are excluded from calculations of mean and median. Median lifespan is equal to the time at which 50% of the subjects have died. Mean lifespan is calculated from the area under the survival curve. Maximum lifespan is equal to 95th percentile of lifespans in each group. C.I.: Confidence Interval. See Figure 55 and Table 33 for statistical analysis Table 33: Pairwise statistical analysis of survival curves.

T1 sequence (P10637 whole entry): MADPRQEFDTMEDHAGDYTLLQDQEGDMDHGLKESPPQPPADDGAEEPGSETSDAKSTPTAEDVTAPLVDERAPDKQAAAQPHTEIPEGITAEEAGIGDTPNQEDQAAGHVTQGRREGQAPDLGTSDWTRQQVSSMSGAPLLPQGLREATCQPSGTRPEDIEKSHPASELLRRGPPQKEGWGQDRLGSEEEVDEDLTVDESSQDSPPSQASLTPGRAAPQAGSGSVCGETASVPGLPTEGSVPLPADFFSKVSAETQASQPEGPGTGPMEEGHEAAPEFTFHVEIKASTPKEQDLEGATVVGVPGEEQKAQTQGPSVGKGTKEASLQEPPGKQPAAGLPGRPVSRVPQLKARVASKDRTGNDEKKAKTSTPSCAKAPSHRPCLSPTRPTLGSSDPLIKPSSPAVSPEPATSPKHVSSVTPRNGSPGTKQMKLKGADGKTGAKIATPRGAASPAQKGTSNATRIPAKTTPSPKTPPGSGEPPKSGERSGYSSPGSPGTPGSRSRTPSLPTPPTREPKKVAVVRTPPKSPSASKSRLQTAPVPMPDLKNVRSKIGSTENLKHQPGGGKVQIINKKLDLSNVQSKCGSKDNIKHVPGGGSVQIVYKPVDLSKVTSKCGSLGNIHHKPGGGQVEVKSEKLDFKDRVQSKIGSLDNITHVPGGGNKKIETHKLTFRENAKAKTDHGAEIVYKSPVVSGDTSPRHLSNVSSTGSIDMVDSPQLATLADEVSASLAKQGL

SMILES: Cc1[nH]c2ccc(C(=O)NCCN(C(C)C)C(C)C)cc2c1C [Compound 22]
- microsomal stability in humans, times higher in comparison to mice [1]: 20 times

SMILES: CCc1c(C)[nH]c2ccc(C(=O)NCCN(CC)CC)cc12 [Compound 4, N-(2-(diethylamino)ethyl)-3-ethyl-2-methyl-1H-indole-5-carboxamide]
- aggregate movement (Centroid Distance, Spatial Distribution) ([2]; high dose (2 µM), after a slower start): even more elevated movement
- aggregate movement (Centroid Distance, Spatial Distribution) ([2]; low dose (200 nM), over the lifespan): consistently higher aggregate movement than control
- Phospho-Tau (Ser396) reduction with autophagy inhibitor ([3]; 5 µM, 10 mM ammonium chloride): could not reduce
- Phospho-Tau (Ser396) reduction ([3]; 5 µM): 20%
- inhibition at 10 µM ([3]; 10 µM, 10 mM ammonium chloride, read-out: Phospho-Tau (Ser396) reduction with autophagy inhibitor): 15.2%
- Phospho-Tau (Ser396) reduction ([3]; 10 µM): 26.3%
- Age at 25% mortality ([4]; 200 nM): 21.42 days
- Age at 50% mortality ([4]; 200 nM): 26.16 days
- Age at 75% mortality ([4]; 200 nM): 29.57 days
- Age at 90% mortality ([4]; 200 nM): 31.75 days
- Age at 100% mortality ([4]; 200 nM): 39.46 days
- Median lifespan ([4]; 200nM (vehicle control 24.3)): 26.2 days
- Mean lifespan ([4]; 200nM (vehicle control 24.7)): 25.7
- Maximum lifespan ([4]; 200nM (vehicle control 34.9), 95th percentile): 33.7 days
- Age at 25% mortality ([4]; 2 µM): 23.9 days
- Age at 50% mortality ([4]; 2 µM): 27.54 days
- Age at 75% mortality ([4]; 2 µM): 29.41 days
- Age at 90% mortality ([4]; 2 µM): 31.23 days
- Age at 100% mortality ([4]; 2 µM): 39.42 days
- Median lifespan ([4]; 2µM (vehicle control 24.3)): 27.6 days
